# Reference: article PMC11433764, “A Novel Compound from the Phenylsulfonylpiperazine Class: Evaluation of In Vitro Activity on Luminal Breast Cancer Cells” (Molecules, 2024)
# What was measured:
# [1] = ABTS radical scavenging assay; conditions: 40 µM (greatest activity among 10, 20, 40, 80 and 160 µM)
# Procedure: The ABTS^+ radical cation scavenging efficacy for compound 3 was determined according to the method described earlier with some modifications. Briefly, an equal amount of 7 mM ABTS^+ (2,20-azino-bis(3-ethylbenzothiazoline-6-sulfonic acid)) stock solution was mixed and kept in the dark at room temperature for 12 h with a 140 mM potassium persulfate stock solution. The ABTS^+ was then diluted in ethanol until it reached a UV absorption value of 0.700 (±0.200) at 734 nm. Compound 3 (10, 20, 40, 80 and 160 µM) was mixed with ABTS^+ in 96-well plates, and absorbance was read at 415 nm using a microplate reader (Thermo Plate TP-Reader, ThermoFisher Scientific, Waltham, MA, USA). The scavenging capability of ABTS^+ radical was expressed as Trolox (0.1 to 2 mM) equivalents.
# ENTPD3 = experiment: qPCR, ENTPD3 expression in MCF7; assay type: cell-based; conditions: vs untreated cells
# Procedure: Total RNA was extracted using Trizol reagent (Invitrogen), according to the manufacturer’s protocol. The quality of extracted RNA was verified by the spectrophotometric readings at 260 and 280 nm (Nanodrop 1000-ThermoFisher), and the first strand of cDNA was synthesized from 1 µg of total RNA via reverse transcription using GoScript™ Reverse Transcription Mix (Promega, Madison, WI, EUA). qPCR analysis was performed using 5.0 μL of Power SYBR Green PCR Master Mix (Applied Biosystems, Carlsbad, CA, USA) and run on a StepOnePlus Systems (Applied Biosystems, Carlsbad, CA, USA) device with the following cycling parameters: 40 cycles of 95 °C for 10 s and 60 °C for 30 s. The comparative Cq was used to find the relative expression of CDH1 (E-caderina), ENTPD1 (ectonucleoside triphosphate diphosphohydrolase 1), ENTPD2 (ectonucleoside triphosphate diphosphohydrolase 2), ENTPD3 (ectonucleoside triphosphate diphosphohydrolase 3), ENTPD5 ([…]) and KRT10 (keratin 10) genes, after relative standard curve optimization. β-2-microglobulin (β2M) was used as a reference gene. The primer sequences are described in Table 3.
# MCF-10A = experiment: MTT cell viability, non-tumor cell line MCF-10A; assay type: cell-based; conditions: Homo sapiens, MCF-10A, 48 h, 1.25–160 μM, read-out: IC50 MCF-10A
# Procedure: Four different breast cells lines were used in this study: MCF-10A (non-tumorigenic), MCF7 (ER+ BC), MDA-MB453 (HER2+ BC) and MDA-MB231 (TNBC). All lineages were obtained from the American Type Culture Collection (ATCC; Manassas, VA, USA) and maintained at a temperature of 37 °C according to the supplier’s recommendations. Only MDA-MB231 cells were not kept in an atmosphere of 5% CO2. MCF-10A was grown in Dulbecco’s Modified Eagle’s Medium (DMEM F12, Gibco, ThermoFisher Scientific, Waltham, MA, USA) supplemented with 20 ng/mL epidermal growth factor (Gibco, ThermoFisher Scientific, Waltham, MA, USA), 0.5 μg/mL hydrocortisone (Sigma-Aldrich, Sigma-Aldrich, St. Louis, MO, USA) and 10 μg/mL insulin (Gibco, ThermoFisher Scientific, Waltham, MA, USA). MCF7 was cultivated in Roswell Park Memorial Institute Medium (RPMI-1640, Gibco, ThermoFisher Scientific, Waltham, MA, USA), MDA-MB453 in IMDM and MDA-MB231 in Leibovitz’s medium (L-15, Gibco, ThermoFisher Scientific, Waltham, MA, USA). All media were supplemented with 10% fetal bovine serum (FBS, Gibco, ThermoFisher Scientific, Waltham, MA, USA) and 50 µg/mL of gentamicin (Cultilab, Campinas, SP, Brazil). The cells were confirmed to be free of mycoplasma and passaged using a 0.25% trypsin-EDTA solution when confluency reached 80–90%.
# Cell viability was determined by spectrophotometric quantification of MTT (3-[4,5-dimethyl-thiazol-2-yl]-2,5-diphenyltetrazolium bromide—Invitrogen. Waltham, MA, USA) reduction to formazan crystals. Cells were seeded at the density of 1 × 10^4 cells/well (MCF-10A, MDA-MB453), 1.5 × 10^4 cells/well (MDA-MB231) and 3 × 10^3 cells/well (MCF7) in 96-well culture dishes and incubated with different concentrations of the compounds (1.25, 2.5, 5, 10, 20, 40, 80 and 160 µM) for 48 h. The medium was than replaced by MTT solution (0.5 mg/mL) and plates were kept at 37 °C for 4 h. After the aspiration of the media, the formazan crystals were diluted with 100 μL of dimethyl-sulfoxide (DMSO)/well and the absorbance at 570 nm was measured using a spectrophotometer (Thermo Plate TP-Reader, Waltham, MA, USA). Cytotoxicity was calculated using the following formula: Cytotoxicity (%) = [absorbance of cells treated with the compounds/absorbance of cells treated with DMSO) × 100]. The IC50 was determined for each compound and was defined as the concentration required to inhibit 50% of cell growth, compared to the control sample (cells treated with DMSO 0.05%).
# Data were presented as the mean ± standard deviation (SD) and analyzed using GraphPad Prism 9.0 software (GraphPad Software Inc., La Jolla, CA, USA). All data were assayed in triplicate. Statistical analysis was performed using one-way ANOVA, Tukey´s HSD post hoc test and Student’s t-test. The IC50 was calculated using non-linear regression and the selectivity index (SI) was calculated by the ratio between the IC50 values corresponding to the non-tumor cell lineage (MCF-10A) and the IC50 values corresponding to the BC cell lines. Statistical significance was accepted at p values < 0.05.
# MCF7 = experiment: Wound-healing migration assay; assay type: cell-based
# Procedure: Wound-healing analysis was applied to test cell migration ability. MCF7 cells were seeded in a 6-well plate at a density of 1 × 10^6 cells/well and, after confluence, a “wound” in the monolayer was introduced by a sterilized 200 μL pipet tip. Cells were washed with PBS and treated with compound 3 (1.125, 2.25 and 4.5 µM) for 24 or 48 h in a serum-free medium. Cells were photographed at 0 h, 24 or 48 h under a light microscope (Evos®, ThermoFisher Scientific, Waltham, MA, USA) at 10× objective using the same randomly chosen fields. The cell-free area was measured by ImageJ v. 1.54 g software and migration in the control well was considered to be 100%.
smiles,measurement,setting,value
"O=C(c1ccc(-n2cnnn2)cc1)N1CCN(S(=O)(=O)c2ccc(Cl)cc2)CC1 [Compound 3, (4-(1H-tetrazol-1-yl)phenyl)(4-((4-chlorophenyl)sulfonyl)piperazin-1-yl)methanone]",ABTS inhibition of free radicals,[1],40%
same,Fold Change ENTPD3 mRNA,"ENTPD3; MCF7, 1.125 µM",1.641
same,Fold Change ENTPD3 mRNA,"ENTPD3; MCF7, 2.25 µM",1.074
same,Fold Change ENTPD3 mRNA,"ENTPD3; MCF7, 4.5 µM",1.229
same,IC50,MCF-10A,> 160 µM
same,Migration of MCF7 cells,"MCF7; 1.13, 2.25 and 4.50 µM, 48 h",significantly inhibited
same,Migration of MCF7 cells,"MCF7; 2.25 and 4.50 µM, 24 h",significantly inhibited
